According to ChEMBL document CHEMBL1138127, “Conversion of potent MMP inhibitors into selective TACE inhibitors” (Bioorg Med Chem Lett, 2006):

How the values were obtained:
[1] = biological target: T1, Interstitial collagenase (Homo sapiens, UniProt P03956); test: Binding affinity to MMP1
T1 sequence (P03956 whole entry): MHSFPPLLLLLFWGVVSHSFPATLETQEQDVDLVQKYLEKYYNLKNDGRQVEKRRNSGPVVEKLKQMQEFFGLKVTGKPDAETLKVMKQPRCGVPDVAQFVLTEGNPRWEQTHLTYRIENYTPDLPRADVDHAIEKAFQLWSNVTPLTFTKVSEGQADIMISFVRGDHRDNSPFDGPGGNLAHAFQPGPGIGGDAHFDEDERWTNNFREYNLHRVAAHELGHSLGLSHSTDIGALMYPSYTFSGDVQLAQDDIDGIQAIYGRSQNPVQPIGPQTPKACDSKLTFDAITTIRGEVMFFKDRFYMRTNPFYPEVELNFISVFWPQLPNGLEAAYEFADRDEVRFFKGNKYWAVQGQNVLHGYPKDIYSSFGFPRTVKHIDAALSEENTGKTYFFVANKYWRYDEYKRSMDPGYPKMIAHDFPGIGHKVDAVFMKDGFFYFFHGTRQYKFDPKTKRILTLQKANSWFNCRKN

[2] = biological target: Disintegrin and metalloproteinase domain-containing protein 17 (Homo sapiens, UniProt P78536); test: Inhibitory activity against TACE
Chain of Disintegrin and metalloproteinase domain-containing protein 17 (P78536 whole entry, the tested form may be a part): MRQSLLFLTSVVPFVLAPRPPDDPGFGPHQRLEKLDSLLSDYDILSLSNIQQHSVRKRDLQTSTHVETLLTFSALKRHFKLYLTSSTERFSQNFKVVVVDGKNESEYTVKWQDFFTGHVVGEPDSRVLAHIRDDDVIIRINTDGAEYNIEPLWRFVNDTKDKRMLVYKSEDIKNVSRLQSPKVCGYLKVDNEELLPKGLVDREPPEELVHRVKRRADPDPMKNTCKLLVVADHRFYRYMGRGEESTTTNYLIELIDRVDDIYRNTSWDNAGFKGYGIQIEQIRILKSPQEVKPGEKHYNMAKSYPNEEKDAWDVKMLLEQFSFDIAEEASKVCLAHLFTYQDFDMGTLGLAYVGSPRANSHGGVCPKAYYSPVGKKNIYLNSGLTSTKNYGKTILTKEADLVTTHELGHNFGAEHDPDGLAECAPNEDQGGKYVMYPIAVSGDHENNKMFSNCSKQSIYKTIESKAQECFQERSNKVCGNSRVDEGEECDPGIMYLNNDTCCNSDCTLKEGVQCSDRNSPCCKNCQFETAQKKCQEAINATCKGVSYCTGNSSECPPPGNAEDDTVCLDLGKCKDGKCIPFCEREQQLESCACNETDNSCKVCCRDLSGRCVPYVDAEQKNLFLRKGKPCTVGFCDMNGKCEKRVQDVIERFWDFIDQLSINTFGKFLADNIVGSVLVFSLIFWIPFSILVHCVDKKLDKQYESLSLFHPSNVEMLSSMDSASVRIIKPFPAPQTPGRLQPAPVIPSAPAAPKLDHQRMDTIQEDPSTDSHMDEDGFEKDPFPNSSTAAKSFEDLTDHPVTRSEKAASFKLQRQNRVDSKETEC

[3] = biological target: Matrix metalloproteinase-9 (Homo sapiens, UniProt P14780); test: Binding affinity to MMP9
Chain of Matrix metalloproteinase-9 (P14780 whole entry): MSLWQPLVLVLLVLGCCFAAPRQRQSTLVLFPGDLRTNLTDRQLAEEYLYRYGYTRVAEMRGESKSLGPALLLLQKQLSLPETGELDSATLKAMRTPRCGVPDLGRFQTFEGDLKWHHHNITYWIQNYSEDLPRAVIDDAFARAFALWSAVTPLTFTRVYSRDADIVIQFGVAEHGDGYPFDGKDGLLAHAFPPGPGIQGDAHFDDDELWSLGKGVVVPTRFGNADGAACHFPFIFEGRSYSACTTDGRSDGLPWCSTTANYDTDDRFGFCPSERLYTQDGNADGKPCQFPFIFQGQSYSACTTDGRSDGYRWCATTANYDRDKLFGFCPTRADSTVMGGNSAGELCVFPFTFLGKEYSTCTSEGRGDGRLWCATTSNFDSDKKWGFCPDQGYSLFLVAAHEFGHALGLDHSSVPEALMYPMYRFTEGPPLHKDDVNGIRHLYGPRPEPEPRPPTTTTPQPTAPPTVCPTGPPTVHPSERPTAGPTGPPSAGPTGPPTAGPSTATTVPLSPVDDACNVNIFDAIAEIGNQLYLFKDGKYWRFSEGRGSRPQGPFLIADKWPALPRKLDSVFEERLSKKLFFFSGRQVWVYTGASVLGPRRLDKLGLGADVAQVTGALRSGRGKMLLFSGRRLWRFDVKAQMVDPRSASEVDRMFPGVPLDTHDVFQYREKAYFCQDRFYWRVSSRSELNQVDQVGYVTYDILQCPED

[4] = biological target: Collagenase 3 (Homo sapiens, UniProt P45452); test: Binding affinity to MMP13
[5] = biological target: 72 kDa type IV collagenase (Homo sapiens, UniProt P08253); test: Binding affinity to MMP2
Chain of 72 kDa type IV collagenase (P08253 whole entry): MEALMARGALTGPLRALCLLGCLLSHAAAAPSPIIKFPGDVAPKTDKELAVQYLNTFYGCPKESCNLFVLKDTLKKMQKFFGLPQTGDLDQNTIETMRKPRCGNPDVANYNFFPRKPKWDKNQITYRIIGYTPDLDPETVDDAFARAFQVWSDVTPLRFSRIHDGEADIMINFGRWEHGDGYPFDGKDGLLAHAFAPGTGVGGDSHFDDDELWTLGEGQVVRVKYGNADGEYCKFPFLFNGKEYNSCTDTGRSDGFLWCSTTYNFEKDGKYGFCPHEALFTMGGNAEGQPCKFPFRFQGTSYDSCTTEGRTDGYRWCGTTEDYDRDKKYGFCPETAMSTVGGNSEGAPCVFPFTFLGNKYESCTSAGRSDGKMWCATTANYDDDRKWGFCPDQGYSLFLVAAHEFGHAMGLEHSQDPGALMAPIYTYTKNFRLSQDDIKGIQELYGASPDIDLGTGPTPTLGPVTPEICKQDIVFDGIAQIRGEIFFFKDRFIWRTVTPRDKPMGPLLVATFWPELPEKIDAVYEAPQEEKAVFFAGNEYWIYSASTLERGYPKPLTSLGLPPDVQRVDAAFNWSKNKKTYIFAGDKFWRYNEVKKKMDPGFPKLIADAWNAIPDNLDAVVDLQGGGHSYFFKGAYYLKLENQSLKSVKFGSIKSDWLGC

Row | Compound | Ki [1] [nM] | IC50 [2] [nM] | Ki [3] [nM] | Ki [4] [nM] | Ki [5] [nM]
1 | COc1ccc(-c2ccc(CN3C(C(=O)NO)CCS3(=O)=O)cc2)cc1 (configuration not stated) | > 4950 | > 1000 | – | – | –
2 | Cc1cc(COc2ccc(N3C(C(=O)NO)CCCS3(=O)=O)cc2)c2ccccc2n1 (configuration not stated) | > 4950 | 3.7 | > 2130 | > 5030 | > 3330
3 | Cc1cc(COc2ccc(CC3C(C(=O)NO)CCS3(=O)=O)cc2)c2ccccc2n1 (configuration not stated) | > 4950 | 150 | > 2130 | > 5030 | > 3330
4 | Cc1cc(COc2ccc(N3C(C(=O)NO)CCS3(=O)=O)cc2)c2ccccc2n1 (configuration not stated) | > 4950 | 5.9 | > 2130 | > 5030 | > 3330
5 | Cc1cc(COc2ccc(CN3C(C(=O)NO)CCS3(=O)=O)cc2)c2ccccc2n1 (configuration not stated) | > 4950 | 900 | > 2130 | > 5030 | > 3330
6 | Cc1cc(COc2ccc(CCN3C(C(=O)NO)CCS3(=O)=O)cc2)c2ccccc2n1 (configuration not stated) | > 4950 | 480 | > 2130 | > 5030 | > 3330
7 | Cc1cc(COc2ccc(N3C(C(=O)NO)CNS3(=O)=O)cc2)c2ccccc2n1 (configuration not stated) | > 4950 | 8.3 | > 2130 | > 5030 | > 3330
